Test results reported in patent publication US20250195483A1, “SPIRO PIPERIDINE DERIVATIVES AS INHIBITORS OF APOL1 AND METHODS OF USING SAME” (Vertex Pharmaceuticals Incorporated, priority 2022, published 2025).

Each compound was assayed against T1, APOL1 (Homo sapiens, UniProt O14791) (assay: MultiTox-Fluor Multiplex Cytotoxicity Assay, tet-inducible APOL1 T-REx-HEK293 cells (G0, G1 or G2 clone not specified for Table 20)). Details: tet-induced, 24 hours with compound, ratio of dead to live cells, read-out: IP50 (i.e., IC50 for cell proliferation).
T1 sequence (O14791 1-398): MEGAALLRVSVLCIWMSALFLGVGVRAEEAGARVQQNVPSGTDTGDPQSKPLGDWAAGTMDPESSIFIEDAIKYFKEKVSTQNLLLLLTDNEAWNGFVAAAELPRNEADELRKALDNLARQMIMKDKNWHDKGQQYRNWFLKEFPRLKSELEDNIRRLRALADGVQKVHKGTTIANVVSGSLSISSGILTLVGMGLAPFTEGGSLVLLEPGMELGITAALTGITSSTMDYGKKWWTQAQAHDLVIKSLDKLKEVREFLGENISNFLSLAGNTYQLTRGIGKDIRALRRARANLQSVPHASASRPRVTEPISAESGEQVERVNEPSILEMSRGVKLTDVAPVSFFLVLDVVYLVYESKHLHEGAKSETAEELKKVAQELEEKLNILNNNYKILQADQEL
Type: cell-based
Method in brief: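 HEK293 T-REx cells with tet-inducible APOL1 G0, G1 or G2 clone, 23,400/well, treated with tetracycline plus compound (top 10 μM, 10-point 3-fold, duplicate) for 24 h at 37° C. MultiTox-Fluor dead/live fluorescence ratio, normalized to no-tet (100% viability) and 50 ng/mL tet (0% viability) controls, then curve-fitted.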
CCc1nnc(Cn2cc(CN3CC[C@]4(C[C@@H]3C)OCCc3ccc(Cl)cc34)nn2)o1 [Compound 161] showed an IC50 of no more than 50 nM.
CNC(=O)C1OC2(CCN(Cc3cnn(C(C)C)c3)CC2)c2cc(Cl)ccc21 (stereo not shown) [Compound 298, 6-chloro-1′-((1-isopropyl-1H-pyrazol-4-yl)methyl)-N-methyl-3H-spiro[isobenzofuran-1,4′-piperidine]-3-carboxamide] was tested, and the IC50 was no less than 500 nM.
Compound NC(=O)C1OC2(CCN(Cc3cnn(-c4cccc(C(F)(F)F)c4)c3)CC2)c2cc(Cl)ccc21 (stereo not shown) [Compound 212, 5-chloro-1′-[[1-[3-(trifluoromethyl)phenyl]pyrazol-4-yl]methyl]spiro[1H-isobenzofuran-3,4′-piperidine]-1-carboxamide] has an IC50 of no more than 50 nM.
Compound Cc1ccc2c(c1)C1(CCN(Cc3cnn(CCO)c3)CC1)C(=O)N2 [Compound 26] has an IC50 of no less than 500 nM.
Work on NC(=O)C1OC2(CCN(Cc3cnn4cccnc34)CC2)c2cc(Cl)ccc21 (stereo not shown) [Compound 228] yielded an IC50 of 50 to 500 nM.
Work on CC(C)n1cc(CN2CCC3(CC2)OC(C(N)=O)c2ccc(Cl)cc23)cn1 (stereo not shown) [Compound 220] yielded an IC50 of no less than 500 nM.
N#Cc1ccc(CN2CCC3(CC2)C(=O)Nc2ccc(Cl)cc23)c(F)c1 [Compound 15] was tested, and the IC50 was no less than 500 nM.
C[C@H]1C[C@@]2(CCN1Cc1cnn(C)c1)OCCc1ccc(Cl)cc12 [Compound 111] gave an IC50 of no more than 50 nM.
Compound CN(C)C(=O)Cn1cc(CN2CCC3(CC2)OC(C(N)=O)c2ccc(Cl)cc23)cn1 (stereo not shown) [Compound 284] has an IC50 of 50 to 500 nM.
Compound C[C@H]1C[C@@]2(CCN1Cc1cn(C)cn1)OCCc1ccc(Cl)cc12 [Compound 108] has an IC50 of no less than 500 nM.
Compound Cc1ccc2c(c1)C1(CCN(Cc3ccccc3)C(C)C1)OCC2 (stereo not shown) [Compound 137] has an IC50 of no less than 500 nM.
For CC(C)(CO)Nc1ncc(CN2CCC3(CC2)C(=O)Nc2ccc(Cl)cc23)cn1 [Compound 10], the IC50 was 50 to 500 nM.
Cc1ccc2c(c1)C1(CCN(Cc3cnn(-c4ccccc4)c3)CC1)OC2C(N)=O (stereo not shown) [Compound 196] showed an IC50 of no more than 50 nM.
With C[C@H]1C[C@@]2(CCN1Cc1ncc[nH]1)OCCc1ccc(Cl)cc12 [Compound 110] the IC50 was 50 to 500 nM.
For CS(=O)(=O)CCn1cc(CN2CCC3(CC2)C(=O)Nc2ccc(C(F)F)cc23)cn1 [Compound 33], the IC50 was 50 to 500 nM.
Cc1ncc(CN2CCC3(CC2)OC(C(N)=O)c2ccc(Cl)cc23)o1 (stereo not shown) [Compound 260] showed an IC50 of 50 to 500 nM.
Work on C[C@H]1C[C@@]2(CCN1Cc1cn(CCNS(=O)(=O)C3CC3)nn1)OCCc1ccc(Cl)cc12 [Compound 187] yielded an IC50 of no more than 50 nM.
Compound C[C@H]1C[C@@]2(CCN1Cc1cn(Cc3cn(C4CC4)c(=O)[nH]c3=O)nn1)OCCc1ccc(Cl)cc12 [Compound 189] has an IC50 of no more than 50 nM.
NC(=O)C1OC2(CCN(Cc3cnn(CC(O)C4(O)CCOCC4)c3)CC2)c2cc(Cl)ccc21 (stereo not shown) [Compound 281] was tested, and the IC50 was no more than 50 nM.
CNC(=O)C1OC2(CCN(Cc3cnn(-c4ccccc4)c3)CC2)c2cc(C#N)ccc21 (stereo not shown) [Compound 204, 5-cyano-N-methyl-1′-[(1-phenylpyrazol-4-yl)methyl]spiro[1H-isobenzofuran-3,4′-piperidine]-1-carboxamide] showed an IC50 of 50 to 500 nM.
For Cn1cc(CN2CCC3(CC2)OCCc2ccc(C(F)(F)F)cc23)cn1 [Compound 128], the IC50 was no less than 500 nM.
For COC(=O)c1ccc(CN2CCC3(CC2)OC(C(N)=O)c2ccc(Cl)cc23)cn1 (stereo not shown) [Compound 246], the IC50 was no more than 50 nM.
NC(=O)C1OC2(CCN(Cc3cc4n(n3)CCOC4)CC2)c2cc(Cl)ccc21 (stereo not shown) [Compound 249] showed an IC50 of no less than 500 nM.
C[C@H]1C[C@@]2(CCN1Cc1cn(CC(O)C(C)(C)O)nn1)OCCc1ccc(Cl)cc12 (stereo partly shown) [Compound 156] showed an IC50 of no more than 50 nM.
Work on CS(=O)(=O)CCn1cc(CN2CCC3(CC2)C(=O)Nc2c(CO)cc(Cl)cc23)cn1 [Compound 29] yielded an IC50 of no more than 50 nM.
Work on C[C@H]1C[C@@]2(CCN1Cc1cn(Cc3nc(CO)cs3)nn1)OCCc1ccc(Cl)cc12 [Compound 164] yielded an IC50 of 50 to 500 nM.
C[C@H]1C[C@@]2(CCN1Cc1cn(Cc3cn(C4COC4)nn3)nn1)OCCc1ccc(Cl)cc12 [Compound 181] gave an IC50 of no more than 50 nM.
COCCN1C(=O)C2(CCN(Cc3cnn(CCS(C)(=O)=O)c3)CC2)c2cc(Cl)ccc21 [Compound 51] gave an IC50 of no less than 500 nM.
NC(=O)C1OC2(CCN(Cc3cnn(C[C@@H](O)CO)c3)CC2)c2cc(Cl)ccc21 (stereo partly shown) [Compound 283] gave an IC50 of 50 to 500 nM.
Compound CN1C(=O)C2(CCN(Cc3cnn(C[C@H]4C[C@@H](NS(=O)(=O)C5CC5)C4)c3)CC2)c2cc(Cl)ccc21 [Compound 65] has an IC50 of no less than 500 nM.
Work on CNC(=O)C1OC2(CCN(Cc3cnn(-c4cnc(C)nc4)c3)CC2)c2cc(Cl)ccc21 (stereo not shown) [Compound 211, 5-chloro-N-methyl-1′-[[1-(2-methylpyrimidin-5-yl)pyrazol-4-yl]methyl]spiro[1H-isobenzofuran-3,4′-piperidine]-1-carboxamide] yielded an IC50 of no more than 50 nM.
In the case of CS(=O)(=O)CCn1cc(CN2CCC3(CC2)OCCc2ccc(Cl)cc23)nn1 [Compound 129], the IC50 is reported as no less than 500 nM.
C[C@H]1C[C@@]2(CCN1Cc1cn(Cc3nccn(C)c3=O)nn1)OCCc1ccc(Cl)cc12 [Compound 176] gave an IC50 of 50 to 500 nM.
Compound CNc1cnc(Cn2cc(CN3CC[C@]4(C[C@@H]3C)OCCc3ccc(Cl)cc34)nn2)cn1 [Compound 162] has an IC50 of 50 to 500 nM.
Work on NC(=O)C1OC2(CCN(Cc3cnn(CC4(O)CCS(=O)(=O)CC4)c3)CC2)c2cc(Cl)ccc21 (stereo not shown) [Compound 282] yielded an IC50 of no more than 50 nM.
In the case of C[C@H]1C[C@@]2(CCN1Cc1cn(C)nn1)OCCc1ccc(Cl)cc12 [Compound 105], the IC50 is reported as no more than 50 nM.
C[C@H]1C[C@@]2(CCN1Cc1cn[nH]c1)OCCc1ccc(Cl)cc12 [Compound 104] showed an IC50 of no more than 50 nM.
C[C@H]1CC2(CCN1Cc1cnn(CCS(C)(=O)=O)c1)CC(O)c1ccc(Cl)cc12 (single isomer, unassigned) [Compound 307, (2′S)-5-chloro-2′-methyl-1′-[[1-(2-methylsulfonylethyl)pyrazol-4-yl]methyl]spiro[indane-3,4′-piperidine]-1-ol] showed an IC50 of no more than 50 nM.
In the case of CN1C(=O)C2(CCN(Cc3cn(CC(C)(CO)CO)nn3)CC2)c2cc(Cl)ccc21 [Compound 44], the IC50 is reported as no less than 500 nM.
CC(CO)(CO)Cn1cc(CN2CCC3(CC2)OC(C(N)=O)c2ccc(Cl)cc23)cn1 (stereo not shown) [Compound 279, 5-chloro-1′-[[1-[3-hydroxy-2-(hydroxymethyl)-2-methyl-propyl]pyrazol-4-yl]methyl]spiro[1H-isobenzofuran-3,4′-piperidine]-1-carboxamide] was tested, and the IC50 was no more than 50 nM.
CS(=O)(=O)CCn1cc(CN2CCC3(CC2)C(=O)Nc2ccc(CC(F)F)cc23)cn1 [Compound 31] was tested, and the IC50 was no less than 500 nM.
In the case of CS(=O)(=O)CCn1cc(CN2CCC3(CC2)OC(C(N)=O)c2ccc(C(F)(F)F)cc23)nn1 (stereo not shown) [Compound 207, 1′-[[1-(2-methylsulfonylethyl)triazol-4-yl]methyl]-5-(trifluoromethyl)spiro[1H-isobenzofuran-3,4′-piperidine]-1-carboxamide], the IC50 is reported as no less than 500 nM.
Compound C[C@H]1C[C@@]2(CCN1Cc1cn(CCCn3ccc(=O)[nH]c3=O)nn1)OCCc1ccc(Cl)cc12 [Compound 179] has an IC50 of no more than 50 nM.
NC(=O)C1OC2(CCN(Cc3cc(C4CC4)[nH]n3)CC2)c2cc(Cl)ccc21 (stereo not shown) [Compound 242] gave an IC50 of 50 to 500 nM.
CC1(O)CC2(CCN(Cc3cnn(CCS(C)(=O)=O)c3)CC2)c2cc(Cl)ccc21 (stereo not shown) [Compound 303, 5-chloro-1-methyl-1′-[[1-(2-methylsulfonylethyl)pyrazol-4-yl]methyl]spiro[indane-3,4′-piperidine]-1-ol] showed an IC50 of no less than 500 nM.
For C[C@H]1C[C@@]2(CCN1Cc1cccnc1)OCCc1ccc(Cl)cc12 [Compound 114], the IC50 was no more than 50 nM.
